Laboratory results reported in patent US20140171358A1, “ANTIMICROBIAL COMPOSITIONS COMPRISING DGLA AND NEOMYCIN SULFATE AND METHODS OF USE THEREOF” (Dignity Sciences Limited, priority 2012, published 2014).
Where two headings read alike, the source gives them in different places.

Key:
Assay type in all cases: cell-based
P. acnes = experiment: agar dilution method: growth index and MIC on P. acnes (single compounds and combinations); details: for MIC: Cutibacterium acnes; for growth of P. Acnes with the combination compared with 15-HETrE used alone: in combination with 15-HETrE; for growth of P. Acnes with the combination compared with 15-OHEPA used alone: in combination with 15-OHEPA; for growth of P. Acnes with the combination compared with DGLA used alone: in combination with DGLA
Procedure: Several compounds including fatty acids such as DGLA, 15-OHEPA, and 15-HETrE were tested to determine their capacity to inhibit the growth of P. acnes. In an exemplary method, an agar dilution method was used to determine the minimum inhibitory concentration (MIC) of each tested compound. Briefly, the agar dilution method involved preparing a series of concentrations of each compound (e.g., nicotinamide, benzoyl peroxide, adapalene, metronidazole, DGLA, 15-OHEPA, and 15-HETrE) in a Reinforced Clostridial Agar (RCA) media that facilitates growth of P. acnes under anaerobic conditions. An inoculum of P. acnes was prepared by incubation of P. acnes for approximately seven days at 35-37° C. to achieve a ≧1.0 OD600 inoculum of P. acnes in RCM broth. A portion of this inoculum was then added to the surface of each plate as a 10 μL spot and incubated at 35-37° C. for 72 hours or more. Growth of P. acnes was then observed and compared to control plates in which no compound has been added, and positive inhibition plates prepared with erythromycin. […] The growth of P. acnes in the presence of nicotinamide, benzoyl peroxide, adapalene, metronidazole, DGLA, 15-OHEPA, and 15-HETrE was determined with varying concentrations of the compound (see, Table 2). Next, the MIC was determined as the concentration at which a marked reduction (+) occurs in the appearance of growth on the test plate (as per Clinical and Laboratory Standards Institute M11-A7). The compounds tested singly in Example 1 were tested in combination with one another to determine the capacity of the combination to inhibit the growth of P. acnes. In an exemplary method, the MIC was determined for each of the combination as described in Example 1. Briefly, test combinations included DGLA with nicotinamide, benzoyl peroxide, adapalene, or metronidazole; 15-HETrE with nicotinamide, benzoyl peroxide, adapalene, or metronidazole; and 15-OHEPA with nicotinamide, benzoyl peroxide, adapalene, or metronidazole. The tables below show the growth of P. acnes in the presence of 0.4 or 1.0 mg/mL DGLA with varying concentrations of nicotinamide, benzoyl peroxide, adapalene, or metronidazole (Table 3); the growth of P. acnes in the presence of 0.01 or 0.05 mg/mL 15-HETrE with varying concentrations of nicotinamide, benzoyl peroxide, adapalene, or metronidazole (Table 5); and the growth of P. acnes in the presence of 0.5 or 0.1 mg/mL 15-OHEPA with varying concentrations of nicotinamide, benzoyl peroxide, adapalene, or metronidazole (Table 7).

A. brasiliensis = experiment: paper disc corrected zone of inhibition (CZOI) on Mueller Hinton agar
Procedure: (§1) The compounds tested in Example 1 were tested to determine their capacity to inhibit the growth of a variety of Gram-negative bacteria, Gram-positive bactgeria, fungi and yeast. In an exemplary method, Mueller Hinton agar plates were streaked with 500 μL of a 10^5 colony-forming units/mL culture and allowed to dry for at least one minute. A sterile paper disc (6 mm diameter) was then placed in the middle of each plate using sterile forceps. Twenty microliters of a solution of a known concentration of a test compound in filter-sterilized 95% ethanol were pipetted onto each test plate. Two streaked plates served as positive inhibitory controls and contained 6 mm sterile paper discs with standard tetracycline solutions. Two additional plates served as negative inhibition controls and each contained 6 mm sterile paper discs with 20 μL of filter-sterilized 95% ethanol. Two more plates served as positive growth controls and contained no paper disc or added antibacterial agent. The plates were incubated at 32.5±2° C. for 24±4 hours, after which the corrected zone of inhibition (“CZOI”) was determined as follows: For each plate, the length Y2 and width X2 of the test sample (paper disc) and length Y1 and width X1 of the clear zone were measured (FIG. 1). The CZOI was calculated from these values as shown by the equation below: [formula]

C. albicans = experiment: as above
Procedure: as §1

C. striatum = experiment: as above
Procedure: as §1

E. coli = experiment: as above
Procedure: as §1

E. faecalis = experiment: as above
Procedure: as §1

K. pneumoniae = experiment: as above
Procedure: as §1

P. aeroginosa = experiment: as above
Procedure: as §1

S. aureus = experiment: as above
Procedure: as §1

S. epidermidis = experiment: as above
Procedure: as §1

[1] = compound alone, read-out: MIC (mg/mL) as per P-11-0007 or P-11-0008 Addendum A
[2] = read-out: MIC (mg/mL) with 0.01 mg/mL 15-HETrE spike
[3] = read-out: MIC (mg/mL) with 0.05 mg/mL 15-OHEPA spike
[4] = with 0.05 mg/mL 15-HETrE (inhibitory concentration), read-out: MIC (mg/mL) with 0.05 mg/mL 15-HETrE spike
[5] = with 0.1 mg/mL 15-OHEPA (inhibitory concentration), read-out: MIC (mg/mL) with 0.1 mg/mL 15-OHEPA spike
[6] = with 0.4 mg/mL dGLA (Sigma), read-out: MIC (mg/mL) with 0.4 mg/mL dGLA spike
[7] = with 1.0 mg/mL dGLA (Cayman), read-out: MIC (mg/mL) with 1.0 mg/mL dGLA spike

In the case of `CCCCC/C=C\C/C=C\C/C=C\CCCCCCC(=O)O` [DGLA, cis-8,11,14-eicosatrienoic acid], the “effect on growth of P. acnes on its own” value (P. acnes; 0.4 mg/ml) is reported as “no effect on its own”, the MIC (P. acnes; [1]) is reported as 0.4 to 0.6 mg/mL and the “Average CZOI” value (A. brasiliensis; 0.6 mg/mL) is reported as 1.5 mm. The “Average CZOI” value (A. brasiliensis; 0.8 mg/mL) was 4 mm, the “Average CZOI” value (A. brasiliensis; 1.0 mg/mL) was 2.75 mm and the “Average CZOI” value (A. brasiliensis; 1.2 mg/mL) was 1.75 mm. For the same compound, the “Average CZOI” value (A. brasiliensis; 1.4 mg/mL) was 2.25 mm, the “Lowest Concentration With Observed Inhibition” value (A. brasiliensis; A. brasiliensis) was 0.6 mg/mL and the “Most Effective Concentration Observed” value (A. brasiliensis; A. brasiliensis) was 0.8 mg/mL. For the same compound, the “Average CZOI” value (C. albicans; 0.6 mg/mL) was 1 mm, the “Average CZOI” value (C. albicans; 0.8 mg/mL) was 0.75 mm and the “Average CZOI” value (C. albicans; 1.0 mg/mL) was 1.75 mm. The “Average CZOI” value (C. albicans; 1.2 mg/mL) was 2 mm, the “Average CZOI” value (C. albicans; 1.4 mg/mL) was 3 mm and the “Lowest Concentration With Observed Inhibition” value (C. albicans; C. albicans) was 0.6 mg/mL. For the same compound, the “Most Effective Concentration Observed” value (C. albicans; C. albicans) was 1.4 mg/mL, the “Average CZOI” value (C. striatum; 0.6 mg/mL) was 3.75 mm and the “Average CZOI” value (C. striatum; 0.8 mg/mL) was 2.75 mm. For the same compound, the “Average CZOI” value (C. striatum; 1.0 mg/mL) was 2 mm, the “Average CZOI” value (C. striatum; 1.2 mg/mL) was 4.75 mm and the “Average CZOI” value (C. striatum; 1.4 mg/mL) was 2.75 mm. For the same compound, the “Lowest Concentration With Observed Inhibition” value (C. striatum; C. striatum) was 0.6 mg/mL, the “Most Effective Concentration Observed” value (C. striatum; C. striatum) was 1.2 mg/mL and the “Average CZOI” value (E. coli; 0.6 mg/mL) was 1 mm. The “Average CZOI” value (E. coli; 0.8 mg/mL) was 1 mm, the “Average CZOI” value (E. coli; 1.0 mg/mL) was 1.5 mm and the “Average CZOI” value (E. coli; 1.2 mg/mL) was 0.5 mm. For the same compound, the “Average CZOI” value (E. coli; 1.4 mg/mL) was 0.25 mm, the “Lowest Concentration With Observed Inhibition” value (E. coli; E. coli) was 0.6 mg/mL and the “Most Effective Concentration Observed” value (E. coli; E. coli) was 1.0 mg/mL. The “Average CZOI” value (E. faecalis; 0.6 mg/mL) was 3.25 mm, the “Average CZOI” value (E. faecalis; 0.8 mg/mL) was 3 mm and the “Average CZOI” value (E. faecalis; 1.0 mg/mL) was 5 mm. For the same compound, the “Average CZOI” value (E. faecalis; 1.2 mg/mL) was 2 mm, the “Average CZOI” value (E. faecalis; 1.4 mg/mL) was 1.75 mm and the “Lowest Concentration With Observed Inhibition” value (E. faecalis; E. faecalis) was 0.6 mg/mL. For the same compound, the “Most Effective Concentration Observed” value (E. faecalis; E. faecalis) was 1.0 mg/mL, the “Average CZOI” value (K. pneumoniae; 0.6 mg/mL) was 1.75 mm and the “Average CZOI” value (K. pneumoniae; 0.8 mg/mL) was 2 mm. The “Average CZOI” value (K. pneumoniae; 1.0 mg/mL) was 2.75 mm, the “Average CZOI” value (K. pneumoniae; 1.2 mg/mL) was 2 mm and the “Average CZOI” value (K. pneumoniae; 1.4 mg/mL) was 1.25 mm. The “Lowest Concentration With Observed Inhibition” value (K. pneumoniae; K. pneumoniae) was 0.6 mg/mL, the “Most Effective Concentration Observed” value (K. pneumoniae; K. pneumoniae) was 1.0 mg/mL and the “Average CZOI” value (P. aeroginosa; 0.6 mg/mL) was 1 mm. The “Average CZOI” value (P. aeroginosa; 0.8 mg/mL) was 1 mm, the “Average CZOI” value (P. aeroginosa; 1.0 mg/mL) was 1 mm and the “Average CZOI” value (P. aeroginosa; 1.2 mg/mL) was 1 mm. For the same compound, the “Average CZOI” value (P. aeroginosa; 1.4 mg/mL) was 1 mm, the “Lowest Concentration With Observed Inhibition” value (P. aeroginosa; P. aeroginosa) was 0.6 mg/mL and the “Most Effective Concentration Observed” value (P. aeroginosa; P. aeroginosa) was 0.6 mg/mL. The “Average CZOI” value (S. aureus; 0.6 mg/mL) was 1.25 mm, the “Average CZOI” value (S. aureus; 0.8 mg/mL) was 3 mm and the “Average CZOI” value (S. aureus; 1.0 mg/mL) was 3 mm. For the same compound, the “Average CZOI” value (S. aureus; 1.2 mg/mL) was 3 mm, the “Average CZOI” value (S. aureus; 1.4 mg/mL) was 2 mm and the “Lowest Concentration With Observed Inhibition” value (S. aureus; S. aureus) was 0.6 mg/mL. The “Most Effective Concentration Observed” value (S. aureus; S. aureus) was 0.8 mg/mL, the “Average CZOI” value (S. epidermidis; 0.6 mg/mL) was 4.75 mm and the “Average CZOI” value (S. epidermidis; 0.8 mg/mL) was 3.25 mm. For the same compound, the “Average CZOI” value (S. epidermidis; 1.0 mg/mL) was 6.5 mm, the “Average CZOI” value (S. epidermidis; 1.2 mg/mL) was 3 mm and the “Average CZOI” value (S. epidermidis; 1.4 mg/mL) was 1 mm. For the same compound, the “Lowest Concentration With Observed Inhibition” value (S. epidermidis; S. epidermidis) was 0.6 mg/mL and the “Most Effective Concentration Observed” value (S. epidermidis; S. epidermidis) was 1.0 mg/mL.
In the case of `O=C(OOC(=O)c1ccccc1)c1ccccc1` [Benzoyl Peroxide], the MIC (P. acnes; [1]) is reported as 0.6 to 0.8 mg/mL, the MIC (P. acnes; [2]) is reported as 0.6 to 0.8 mg/mL and the MIC (P. acnes; [3]) is reported as 0.4 to 0.6 mg/mL. For the same compound, the MIC (P. acnes; [4]) was under 0.2 mg/mL, the MIC (P. acnes; [5]) was under 0.2 mg/mL and the MIC (P. acnes; [6]) was 0.2 to 0.4 mg/mL. The MIC (P. acnes; [7]) was 0.2 to 0.4 mg/mL and the “growth of P. Acnes with the combination compared with 15-HETrE used alone” value (P. acnes) was “did not reduce the growth of P. Acnes below that of 15-HETrE used alone”.
For `COc1ccc(-c2ccc3cc(C(=O)O)ccc3c2)cc1C12CC3CC(CC(C3)C1)C2` [Adapalene], the MIC (P. acnes; [2]) was 0.6 to 0.7 mg/mL, the MIC (P. acnes; [3]) was over 0.8 mg/mL and the MIC (P. acnes; [4]) was under 0.2 mg/mL. For the same compound, the MIC (P. acnes; [5]) was under 0.2 mg/mL, the MIC (P. acnes; [6]) was over 0.6 mg/mL and the MIC (P. acnes; [7]) was over 0.6 mg/mL. For the same compound, the “growth of P. Acnes with the combination compared with 15-OHEPA used alone” value (P. acnes) was “did not reduce the growth of P. Acnes below that of 15 OHEPA used alone” and the “growth of P. Acnes with the combination compared with DGLA used alone” value (P. acnes) was “did not reduce the growth of P. Acnes below that of DGLA used alone”.
`Cc1ncc([N+](=O)[O-])n1CCO` [Metronidazole] gave an MIC (P. acnes; [2]) of over 1 mg/mL, an MIC (P. acnes; [3]) of over 1 mg/mL and an MIC (P. acnes; [4]) of under 0.2 mg/mL. For the same compound, the MIC (P. acnes; [5]) was under 0.2 mg/mL, the MIC (P. acnes; [6]) was over 1 mg/mL and the MIC (P. acnes; [7]) was over 1 mg/mL. For the same compound, the “growth of P. Acnes with the combination compared with 15-HETrE used alone” value (P. acnes) was “did not reduce the growth of P. Acnes below that of 15-HETrE used alone”, the “growth of P. Acnes with the combination compared with 15-OHEPA used alone” value (P. acnes) was “did not reduce the growth of P. Acnes below that of 15 OHEPA used alone” and the “growth of P. Acnes with the combination compared with DGLA used alone” value (P. acnes) was “did not reduce the growth of P. Acnes below that of DGLA used alone”.
`NC(=O)c1cccnc1` [Nicotinamide] showed an MIC (P. acnes; [2]) of 10 to 15 mg/mL, an MIC (P. acnes; [3]) of 10 to 15 mg/mL and an MIC (P. acnes; [4]) of under 1 mg/mL. The MIC (P. acnes; [5]) was under 1 mg/mL, the MIC (P. acnes; [6]) was 10 to 15 mg/mL and the MIC (P. acnes; [7]) was 10 to 15 mg/mL. The “growth of P. Acnes with the combination compared with 15-HETrE used alone” value (P. acnes) was “did not reduce the growth of P. Acnes below that of 15-HETrE used alone”, the “growth of P. Acnes with the combination compared with 15-OHEPA used alone” value (P. acnes) was “did not reduce the growth of P. Acnes below that of 15 OHEPA used alone” and the “growth of P. Acnes with the combination compared with DGLA used alone” value (P. acnes) was “did not reduce the growth of P. Acnes below that of DGLA used alone”.
